Measured values as given in patent US4599352A, “Antineoplastic platinum (IV) complexes and compositions” (priority 1984, dated 1986).

What was measured:
Assay type in all cases: in vivo, Female CD2Fl mice
IP L1210 = test: Activity against IP-implanted L1210 leukemia sensitive to cisplatin, 60 day test (Table 4)
Description: (§1) Biological properties of the compounds of the present invention were determined following the protocol described in Cancer Chemotherapy Reports, Vol. 3, No. 3, 1972 which report is incorporated herein by reference.
(§2) Other known mechanisms of resistance for other classes of agents, such as gene amplification or target enzyme change or amplication, also need to be explored. The experiments summarized in Table 3 were conducted at the same time against both sublines using the same drug preparations. […] These experiments were repeated in a second laboratory as documented in Table 4. However, in these experiments the animals were held for 60 rather than 30 days to evaluate whether or not long-term survivors are produced after drug treatment in a more challenging setting.
This experiment (A8-00005 3LE31) was conducted at the Southern Research Institute, Birmingham, Ala. under the supervision of Dr. Daniel Griswold. The protocols were the same as those published previously (Geran et al., Cancer Chemotherapy Reports 3: No. 2, 1972 [Attachment 11]). 10^5 cells were implanted intraperitoneally in CD2Fl male mice on Day 0. Drug treatments were given intraperitoneally as single injections at the doses indicated on Days 1, 5 and 9 after tumor implantation. The diluent was saline except for NSC-271674 where 5% sodium bicarbonate was used. All drugs were prepared fresh on the day of injection, and all were administered in solution. Median survival times for both control and drug-treated mice were determined and expressed as a percentage (% T/C). Body weights were determined on Day 5 and expressed as a weight difference (body weight of the drug-treated animals minus that of the control animals in grams) (T-C). The diluent control animals lived a median of 8.4 days and gained 1.9 grams by Day 5 in this experiment. All animals, including Day 30 survivors, were used in the calculation of median survival times. The log10 change in tumor burden refers to the net log change in viable tumor cell population at the end of therapy (Rx) as compared to the start of therapy; e.g., a […] means that there was a […] and a 3 log change means there was a 1000-fold increase in tumor burden at the end of therapy. The tumor burden at the start of therapy was about 6.1×10^5 cells in this experiment.
(§3) These experiments (23-00081 3LE31 and 23-00003 3DP3l) were conducted concurrently at the Mason Research Institute, Worcester, MA under the supervision of Dr. William Cobb. See Table 4 for experimental details. The diluent control animals bearing L1210 leukemia lived a median of 8.3 days and gained 1.6 grams by Day 5. […] Female CD2Fl mice were used for these experiments.

IP L1210/Cisplatin [1] = test: Activity against IP-implanted L1210/Cisplatin leukemia resistant to cisplatin, 30 day test (Table 3)
Description: as §1, §2
This experiment (A8-00005 3LE31) was conducted at the Southern Research Institute, Birmingham, Ala. under the supervision of Dr. Daniel Griswold. The protocols were the same as those published previously (Geran et al., Cancer Chemotherapy Reports 3: No. 2, 1972 [Attachment 11]). 10^5 cells were implanted intraperitoneally in CD2Fl male mice on Day 0. Drug treatments were given intraperitoneally as single injections at the doses indicated on Days 1, 5 and 9 after tumor implantation. The diluent was saline except for NSC-271674 where 5% sodium bicarbonate was used. All drugs were prepared fresh on the day of injection, and all were administered in solution. Median survival times for both control and drug-treated mice were determined and expressed as a percentage (% T/C). Body weights were determined on Day 5 and expressed as a weight difference (body weight of the drug-treated animals minus that of the control animals in grams) (T-C). The diluent control animals lived a median of 8.4 days and gained 1.9 grams by Day 5 in this experiment. All animals, including Day 30 survivors, were used in the calculation of median survival times. The log10 change in tumor burden refers to the net log change in viable tumor cell population at the end of therapy (Rx) as compared to the start of therapy; e.g., a […] means that there was a […] and a 3 log change means there was a 1000-fold increase in tumor burden at the end of therapy. The tumor burden at the start of therapy was about 6.1×10^5 cells in this experiment. […]

IP L1210/Cisplatin [2] = test: Activity against IP-implanted L1210/Cisplatin leukemia resistant to cisplatin, 60 day test (Table 4)
Description: as §1
Other known mechanisms of resistance for other classes of agents, such as gene amplification or target enzyme change or amplication, also need to be explored. The experiments summarized in Table 3 were conducted at the same time against both sublines using the same drug preparations. […] These experiments were repeated in a second laboratory as documented in Table 4. However, in these experiments the animals were held for 60 rather than 30 days to evaluate whether or not long-term survivors are produced after drug treatment in a more challenging setting. […]
as §3

In the case of N.N.[Cl][Pt][Cl] [Cisplatin, cis-diamminedichloroplatinum (II), reference compound], the “60 Day Survivors/Total” value (IP L1210; 1.25 mg/kg/dose) is reported as 0/10, the “Body Weight Difference” value (IP L1210; 1.25 mg/kg/dose) is reported as -0.6 Grams and the “Median % T/C” value (IP L1210; 1.25 mg/kg/dose) is reported as 127%. For the same compound, the “60 Day Survivors/Total” value (IP L1210; 5 mg/kg/dose) was 0/10, the “Body Weight Difference” value (IP L1210; 5 mg/kg/dose) was -2.4 Grams and the “Median % T/C” value (IP L1210; 5 mg/kg/dose) was 240%. The “60 Day Survivors/Total” value (IP L1210; 10 mg/kg/dose) was 0/10, the “Body Weight Difference” value (IP L1210; 10 mg/kg/dose) was -5.1 Grams and the “Median % T/C” value (IP L1210; 10 mg/kg/dose) was 107%. For the same compound, the “60 Day Survivors/Total” value (IP L1210; 20 mg/kg/dose) was 0/10, the “Body Weight Difference” value (IP L1210; 20 mg/kg/dose) was -5.8 Grams and the “Median % T/C” value (IP L1210; 20 mg/kg/dose) was “Toxic”. The “30 Day Survivors/Total” value (IP L1210/Cisplatin [1]; 1.25 mg/kg/dose) was 0/6, the “Approx. Log10 Change in Tumor Burden at End of RX” value (shortened to “Approx. Log10 Change”) (IP L1210/Cisplatin [1]; 1.25 mg/kg/dose) was ~3.0 log10 and the “Median % T/C” value (IP L1210/Cisplatin [1]; 1.25 mg/kg/dose) was 104%. For the same compound, the “30 Day Survivors/Total” value (IP L1210/Cisplatin [1]; 5 mg/kg/dose) was 0/6, the “Approx. Log10 Change” value (IP L1210/Cisplatin [1]; 5 mg/kg/dose) was ~3.1 log10 and the “Median % T/C” value (IP L1210/Cisplatin [1]; 5 mg/kg/dose) was 101%. The “30 Day Survivors/Total” value (IP L1210/Cisplatin [1]; 10 mg/kg/dose) was 0/6, the “Approx. Log10 Change” value (IP L1210/Cisplatin [1]; 10 mg/kg/dose) was ~2.9 log10 and the “Median % T/C” value (IP L1210/Cisplatin [1]; 10 mg/kg/dose) was 108%. For the same compound, the “30 Day Survivors/Total” value (IP L1210/Cisplatin [1]; 20 mg/kg/dose) was 0/6, the “Median % T/C” value (IP L1210/Cisplatin [1]; 20 mg/kg/dose) was 86% and the “Activity against L1210/cisplatin” value (IP L1210/Cisplatin [1]; mouse, in vivo) was “refractory”. The “60 Day Survivors/Total” value (IP L1210/Cisplatin [2]; 1.25 mg/kg/dose) was 0/10, the “Body Weight Difference” value (IP L1210/Cisplatin [2]; 1.25 mg/kg/dose) was -0.1 Grams and the “Median % T/C” value (IP L1210/Cisplatin [2]; 1.25 mg/kg/dose) was 103%. The “60 Day Survivors/Total” value (IP L1210/Cisplatin [2]; 5 mg/kg/dose) was 0/10, the “Body Weight Difference” value (IP L1210/Cisplatin [2]; 5 mg/kg/dose) was -2.3 Grams and the “Median % T/C” value (IP L1210/Cisplatin [2]; 5 mg/kg/dose) was 110%. The “60 Day Survivors/Total” value (IP L1210/Cisplatin [2]; 10 mg/kg/dose) was 0/10, the “Body Weight Difference” value (IP L1210/Cisplatin [2]; 10 mg/kg/dose) was -5.1 Grams and the “Median % T/C” value (IP L1210/Cisplatin [2]; 10 mg/kg/dose) was 87%. The “60 Day Survivors/Total” value (IP L1210/Cisplatin [2]; 20 mg/kg/dose) was 0/10, the “Body Weight Difference” value (IP L1210/Cisplatin [2]; 20 mg/kg/dose) was -5.6 Grams and the “Median % T/C” value (IP L1210/Cisplatin [2]; 20 mg/kg/dose) was “Toxic”. For the same compound, the “Activity against L1210/cisplatin” value (IP L1210/Cisplatin [2]; mouse, in vivo) was “lack of activity”.
